Data taken from patent publication US12310948B2, “Application of monocyclic β-lactam compound in pharmacy” (SHENZHEN OPTIMUM BIOLOGICAL TECHNOLOGY CO., LTD, priority 2018, dated 2025).
Marks after values point to notes of the source that are not given here.

Legend:
[1] = test system: Pseudomonas aeruginosa PA14; assay: Pulmonary Pseudomonas aeruginosa infection in immunosuppressive mice: lung bacterial load; assay type: in vivo; conditions: for LOG10 of Bacterial load: lung tissue 24 h after infection, immunosuppressed CD-1 mice, ip at 2 h, 4 h, 6 h, 8 h
Method: Pseudomonas aeruginosa PA14.
(§1) 46 female CD-1 (ICR) mice, supplied by Beijing Vital River Laboratory Animal Technology Co., Ltd., body weight of 23-27 g, 7 weeks old.
46 immunosuppressive mice were formed by intraperitoneal injection of cyclophosphamide 150 mg/kg on day 1 and day 4.
Seven groups were set up, including high, medium and low dose groups of compound represented by formula (I), high and medium-dose groups of compound I-g, aztreonam group and model group; there were 6 animals in each group, the other 4 animals were subjected to pulmonary infection for 2 h, and the lung tissues were removed to count the bacterial load. See the table below for specific grouping.
Mice were injected intratracheally with 50 μL of bacterial fluid (2×10^3 CFU). Four model mice were sacrificed 2 h after infection.
2 h after infection, the mice were injected intraperitoneally once at 2 h, 4 h, 6 h and 8 h according to the groups, for a total of 4 times.
24 h after infection, the mice in each group were sacrificed by cervical dislocation, and the lung and kidney tissues were removed aseptically, then placed into sterilized homogenate tube, weighed, added with proper amount of normal saline (NS), and homogenized by a homogenizer for 1 min; the lung tissues in model group were diluted 10^4, 10^5, and 10^6-fold, the lung tissues in each administration group were diluted 10 and 100-fold, the kidney tissues in model group were diluted 10^2, 10^3, and 10^4-fold, and the lung tissues in each administration group were diluted 10-fold; the serial diluents were plated onto TSA plates with a spiral coater, and incubated overnight at 37° C. to determine CFU counts with a colony counter.
(§2) CFU scatter plots of lung tissue were made using Graphpad Prism mapping software. The average CFU and body weight were calculated by SPSS 19.0 software, and the differences between groups were analyzed by variance analysis.
Mice were injected intraperitoneally with compounds of formula (I), compound I-g and aztreonam at 2 h, 4 h, 6 h and 8 h after infection; animals were sacrificed at 24 h, lung tissues were removed aseptically, immersed in normal saline (NS), homogenized, diluted appropriately, and then 50 μL of diluents were evenly plated onto TSA plates; the plates were incubated overnight in a 37° C. incubator to count the number of colonies, which was converted to CFU per milliliter by a dilution ratio, and logarithmic value of the bacterial load was calculated of base 10, and the mean and standard deviation were compared in each group.

[2] = Animal body weight in the in vivo protection test (pulmonary infection in mice); conditions: for Weight on day 1 / Weight on day 4 / Weight on day 5: ip
Method: as §1
The mice were weighed each day after the start of the test and body weight changes were recorded.
as §2

Row | Compound | LOG10 of Bacterial load ([1]; total dose 400 mg/kg day) | Weight on day 1 ([2]; 400 mg/kg day group) | Weight on day 4 ([2]; 400 mg/kg day group) | Weight on day 5 ([2]; 400 mg/kg day group) | Elimination of the bacteria infected on the lung (in words) ([1]; at the lowest dose) | Elimination of bacterial load in lung tissue (in words) ([1]; high, middle and low-dose groups, 24 h after infection) | LOG10 of Bacterial load ([1]; total dose 60 mg/kg day) | LOG10 of Bacterial load ([1]; total dose 120 mg/kg day) | LOG10 of Bacterial load ([1]; total dose 200 mg/kg day) | Weight on day 1 ([2]; 60 mg/kg day group) | Weight on day 4 ([2]; 60 mg/kg day group) | Weight on day 5 ([2]; 60 mg/kg day group) | Weight on day 1 ([2]; 120 mg/kg day group) | Weight on day 4 ([2]; 120 mg/kg day group) | Weight on day 5 ([2]; 120 mg/kg day group) | Weight on day 1 ([2]; 200 mg/kg day group) | Weight on day 4 ([2]; 200 mg/kg day group) | Weight on day 5 ([2]; 200 mg/kg day group) | Safety conclusion from body weight (in words) ([2]; administration group)
1 | C[C@H]1[C@H](NC(=O)/C(=N\OC(C)(C)C(=O)O)c2csc(N)n2)C(=O)N1S(=O)(=O)O [Aztreonam, aztreonam, reference compound] | 1.62 ± 2.22 | 27.16 ± 1.74 g | 27.80 ± 2.37 g | 28.02 ± 1.08 g | – | – | – | – | – | – | – | – | – | – | – | – | – | – | –
2 | CC1(C)[C@H](NC(=O)/C(=N\O[C@@H](COc2ccc3c(c2)CN(C(=N)N(CCCN)CCCN)C3)C(=O)O)c2csc(N)n2)C(=O)N1OS(=O)(=O)O [Compound represented by formula (I)] | – | – | – | – | completely eliminated | completely eliminated | 0** | 0** | 0** | 26.14 ± 1.21 g | 27.76 ± 0.43 g | 26.77 ± 1.02 g | 26.47 ± 1.65 g | 28.33 ± 1.14 g | 28.01 ± 1.35 g | 26.91 ± 1.03 g | 28.03 ± 2.15 g | 25.40 ± 2.75 g | safe
3 | CC1(C)[C@H](NC(=O)/C(=N\O[C@@H](COc2ccc(C(=N)N[C@@H]3CCCNC3)cc2)C(=O)O)c2csc(N)n2)C(=O)N1OS(=O)(=O)O [I-g, reference compound] | – | – | – | – | – | – | – | 1.58 ± 2.45 | 0** | – | – | – | 27.02 ± 1.12 g | 28.21 ± 1.16 g | 27.20 ± 0.96 g | 27.25 ± 1.14 g | 28.39 ± 1.60 g | 26.43 ± 1.06 g | –
